Measured values: US10765114B2, “4-amino-6-(pyridyl and 2-substitutedphenyl)-picolinates and 6-amino-2-(pyridyl and 2-substitutedphenyl)-pyrimidine-4-carboxylates and their use as herbicides” (Dow AgroSciences LLC, priority 2013, dated 2020)

Experiments:
[1] = tested on: AMARE: redroot pigwseed (Amaranthus retroflexus); assay: Pre-Emergent Test I; type: in vivo; conditions: preemergence
Protocol: (§1) Pre-Emergent Test I Seeds of test species were planted into round plastic pots (5-inch diameter) containing sandy loam soil. After planting, all pots were sub-irrigated 16 h prior to compound application. Compounds were dissolved in a 97:3 v/v mixture of acetone and DMSO and diluted to the appropriate concentration in a final application solution containing water, acetone, isopropanol, DMSO and Agri-dex (crop oil concentrate) in a 59:23:15:1.0:1.5 v/v ratio and 0.02% w/v (weight/volume) of Triton X-155 to obtain the spray solution containing the highest application rate. Additional application rates were obtained by serial dilution of the high rate solution with the above application solution Formulated compound (2.7 mL) was pipetted evenly over the soil surface followed by incorporation with water (15 mL). Following treatment, pots were returned to the greenhouse for the duration of the experiment. The greenhouse was programmed for an approximate 15 h photoperiod which was maintained at about 23-29° C. during the day and 22-28° C. during the night. Nutrients and water were added on a regular basis through surface irrigation and supplemental lighting was provided with overhead metal halide 1000-Watt lamps as necessary. Herbicidal effect ratings were obtained 14 days after treatment. All evaluations were made relative to appropriate controls on a scale of 0 to 100 where 0 represents no herbicidal effect and 100 represents plant death or lack of emergence from the soil and presented in Table A. Some of the compounds tested, application rates employed, plant species tested, and results are given in Table 4.

[2] = tested on: HELAN: sunflower (Helianthus annuus); assay: Pre-Emergent Test I; type: in vivo; conditions: preemergence
Protocol: as §1

[3] = tested on: SETFA: giant foxtail (Setaria faberi); assay: Pre-Emergent Test I; type: in vivo; conditions: preemergence
Protocol: as §1

[4] = tested on: ECHSS (ECHCG: barnyardgrass (Echinochloa crus-galli)); assay: Pre-Emergent Test I; type: in vivo; conditions: preemergence
Protocol: as §1

[5] = tested on: IPOSS (IPOHE: ivyleaf morningglory (Ipomoea hederecea)); assay: Pre-Emergent Test I; type: in vivo; conditions: preemergence
Protocol: as §1

[6] = tested on: AVEFA: wild oats (Avena fatua); assay: Pre-Emergent Test I; type: in vivo; conditions: preemergence
Protocol: as §1

SINAR (wild mustard) = assay: Post-Emergent Test III (Wheat and Barley); type: in vivo, Sinapis arvensis; conditions: for Visual Growth Reduction (%) 21 Days After Application, SINAR: postemergence; for GR50, SINAR: effective dose for growth reduction of 50 percent; for GR50, SINAR / GR80, SINAR / GR90, SINAR: probit analysis; for GR80, SINAR: effective dose for growth reduction of 80 percent; for GR90, SINAR: effective dose for growth reduction of 90 percent
Protocol: Seeds of the desired test plant species were planted in Sun Gro MetroMix® 306 planting mixture, which typically has a pH of 6.0 to 6.8 and an organic matter content of about 30 percent, in plastic pots with a surface area of 103.2 square centimeters (cm^2). When required to ensure good germination and healthy plants, a fungicide treatment and/or other chemical or physical treatment was applied. The plants were grown for 7-36 days in a greenhouse with an approximate 14 h photoperiod which was maintained at about 18° C. during the day and 17° C. during the night. Nutrients and water were added on a regular basis and supplemental lighting was provided with overhead metal halide 1000-Watt lamps as necessary. The plants were employed for testing when they reached the second or third true leaf stage.
A weighed amount, determined by the highest rate to be tested, of each test compound was placed in a 25 mL glass vial and was dissolved in 4 mL of a 97:3 v/v mixture of acetone and DMSO to obtain concentrated stock solutions. […] The concentrated stock solutions obtained were diluted with 20 mL of an aqueous mixture containing acetone, water, isopropyl alcohol, DMSO, Agri-Dex crop oil concentrate, and X-77 surfactant in a 48:39:10:1.5:1.5:0.02 v/v ratio to obtain spray solutions containing the highest application rates. Additional application rates were obtained by serial dilution of 12 mL of the high rate solution into a solution containing 2 mL of 97:3 v/v mixture of acetone and DMSO and 10 mL of an aqueous mixture containing acetone, water, isopropyl alcohol, DMSO, Agri-Dex crop oil concentrate, and X-77 surfactant in a 48:39:10:1.5:1.5:0.02 v/v ratio to obtain ½×, ¼×, ⅛× and 1/16× rates of the high rate. Compound requirements are based upon a 12 mL application volume at a rate of 187 liters per hectare (L/ha). Formulated compounds were applied to the plant material with an overhead Mandel track sprayer equipped with 8002E nozzles calibrated to deliver 187 L/ha over an application area of 0.503 square meters at a spray height of 18 inches (43 cm) above the average plant canopy height. Control plants were sprayed in the same manner with the solvent blank.
The treated plants and control plants were placed in a greenhouse as described above and watered by subirrigation to prevent wash-off of the test compounds. After 21 dAYS, the condition of the test plants as compared with that of the untreated plants was determined visually and scored on a scale of 0 to 100 percent where 0 corresponds to no injury and 100 corresponds to complete kill and presented as indicated in Table A.
By applying the well-accepted probit analysis as described by J. Berkson in Journal of the American Statistical Society, 48, 565 (1953) and by D. Finney in “Probit Analysis” Cambridge University Press (1952), herbicidal injury of a specific compound at various rates can be used to calculate GR10, GR20, GR50, GR80 and GR90 values, which are defined as growth reduction factors that correspond to the effective dose of herbicide required to provide plant growth reduction (GR) of 10 percent, 20 percent, 50 percent, 80 percent and 90 percent, respectively. Probit analysis was applied to data collected from multiple dose rates of individual compounds utilizing the procedures explained in the following examples. The analysis of those dose rates is captured in the following tables.

SMILES	Visual Growth Reduction (%) 21 Days After Application, SINAR (SINAR (wild mustard); 35 g ai/ha)	Visual Growth Reduction (%) 21 Days After Application, SINAR (SINAR (wild mustard); 70 g ai/ha)	Visual Growth Reduction (%) 21 Days After Application, SINAR (SINAR (wild mustard); 140 g ai/ha)	GR50, SINAR (SINAR (wild mustard))	GR80, SINAR (SINAR (wild mustard))	GR90, SINAR (SINAR (wild mustard))	further results
COC(=O)c1nc(-c2ccc(Cl)nc2F)cc(N)c1Cl [Compound 17, methyl 4-amino-5,6′-dichloro-2′-fluoro-[2,3′-bipyridine]-6-carboxylate]							Visual Growth Reduction (%) 14 Days After Application, AMARE ([1]; 3.8 kg ai/ha): A (95-100); Visual Growth Reduction (%) 14 Days After Application, HELAN ([2]; 3.8 kg ai/ha): A (95-100); Visual Growth Reduction (%) 14 Days After Application, SETFA ([3]; 3.8 kg ai/ha): G (0-29); Visual Growth Reduction (%) 14 Days After Application, ECHSS ([4]; 3.8 kg ai/ha): F (30-44); Visual Growth Reduction (%) 14 Days After Application, IPOSS ([5]; 3.8 kg ai/ha): A (95-100); Visual Growth Reduction (%) 14 Days After Application, AVEFA ([6]; 3.8 kg ai/ha): G (0-29)
Nc1c(F)c(-c2ccc(C(F)(F)F)nc2)nc(C(=O)O)c1Cl [Compound 46, 4-amino-5-chloro-3-fluoro-6′-(trifluoromethyl)-[2,3′-bipyridine]-6-carboxylic acid]	B (85-94)	B (85-94)	A (95-100)	2 g ai/ha	19 g ai/ha	62 g ai/ha	
Cc1c(-c2cc(N)c(Cl)c(C(=O)O)n2)ccc(Cl)c1F [Compound 52]	A (95-100)	A (95-100)	A (95-100)	1 g ai/ha	1 g ai/ha	5 g ai/ha	
COC(=O)c1nc(-c2ccc(C(F)(F)F)nc2)cc(N)c1Cl [Compound 4]							Visual Growth Reduction (%) 14 Days After Application, AMARE ([1]; 4 kg ai/ha): D (60-74); Visual Growth Reduction (%) 14 Days After Application, HELAN ([2]; 4 kg ai/ha): G (0-29); Visual Growth Reduction (%) 14 Days After Application, SETFA ([3]; 4 kg ai/ha): F (30-44); Visual Growth Reduction (%) 14 Days After Application, ECHSS ([4]; 4 kg ai/ha): F (30-44); Visual Growth Reduction (%) 14 Days After Application, IPOSS ([5]; 4 kg ai/ha): G (0-29); Visual Growth Reduction (%) 14 Days After Application, AVEFA ([6]; 4 kg ai/ha): G (0-29)
COC(=O)c1nc(-c2ccc(Cl)c(F)c2C)cc(N)c1Cl [Compound 73]	A (95-100)	A (95-100)	A (95-100)	1 g ai/ha	1 g ai/ha	3 g ai/ha	
